Target: T1, t-PA (Homo sapiens, UniProt P00750)
T1 construct: The t-PA purified from human melanoma (Bowes) cell culture; host or cells: Bowes human melanoma cell culture (purified t-PA)
Assay: Amidolytic plasmin assay: activation of plasminogen by t-PA (S-2251 substrate)
Assay type: biochemical
Conditions: no fibrinogen fragments; 0.09 nM t-PA, 0.42 μM plasminogen, 25° C.
Experimental: The assay defects lysis of the amide bond of plasminogen in determining their "amidolytic plasmin activity."
The ability of unfractionated HMW-heparin to stimulate amidolytic plasmin activity of a mixture of Lys-plasminogen or Glu-plasminogen and t-PA was measured according to the protocol, previously published by the inventors herein in Biochemistry, 25, 4033 (1986) (hereinafter "the Biochemistry Paper").
To a buffered solution of 200 ul of 0.1M Tris-HCl, pH 8.1, 0.1% (V/V) Tween 80, 0.3 mM chromogenic plasmin substrate H-D-Val-Leu-Lys-pNA (S-2251, Kabi, Sweden) was added. To this mixture, HMW-heparin fractions (the Ca and Na salts, respectively) in concentrations ranging from 0 to 25 units/ml and 0.42 μM Glu- or Lys- plasminogen were added. […]
The solutions were incubated in microliter plates at 25° C. The change in absorbance (ΔA) at 405 nm was measured against blanks without t-PA in a Bio-Tek model EL-308 microplate reader.
It should be noted that plasmin activity was actually being measured in this assay and that the plasmin concentration was increasing as a function of time due to the action of the plasminogen activators on plasminogen. Thus, plots of absorbance vs. time are parabolic, whereas plots of absorbance vs. time squared are linear. Therefore, the slopes of plots of absorbance vs. time squared were used as a measure of the rate (VO) of plasmin generation. […]

T1 sequence (P00750 36-562): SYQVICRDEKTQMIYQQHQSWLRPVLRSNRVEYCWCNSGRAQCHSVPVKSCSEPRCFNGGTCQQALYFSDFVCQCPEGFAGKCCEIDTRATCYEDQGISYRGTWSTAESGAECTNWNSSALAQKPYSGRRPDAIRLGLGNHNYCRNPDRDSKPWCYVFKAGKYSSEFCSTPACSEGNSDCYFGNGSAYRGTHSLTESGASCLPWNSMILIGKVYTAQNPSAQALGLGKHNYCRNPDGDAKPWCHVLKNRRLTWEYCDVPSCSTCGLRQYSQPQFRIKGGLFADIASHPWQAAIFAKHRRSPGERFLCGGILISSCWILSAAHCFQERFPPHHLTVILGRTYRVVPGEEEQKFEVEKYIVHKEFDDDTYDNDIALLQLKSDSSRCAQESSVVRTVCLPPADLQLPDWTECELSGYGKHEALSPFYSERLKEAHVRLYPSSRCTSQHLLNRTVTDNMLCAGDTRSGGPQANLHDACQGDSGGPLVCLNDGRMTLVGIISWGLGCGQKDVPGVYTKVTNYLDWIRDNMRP

Compound: [Cl-].[Na+] [NaCl]
- effect on amidolytic plasmin activity (plasmin generation) of t-PA-plasminogen mixture: did not cause a marked decrease

Reference: patent US5130143A, “Use of a low affinity-heparin fraction in conjunction with t-PA for thrombolytic therapy” (The Research Foundation of State University of New York, priority 1988, dated 1992)
